Here are results for 4 molecules from patent US20230146533A1, “KERATIN BD-10, PREPARATION METHOD THEREFOR AND PHARMACEUTICAL COMPOSITION AND USE THEREOF” (INSTITUTE OF MATERIA MEDICA, CHINESE ACADEMY OF MEDICAL …, priority 2019, published 2023).

Assay [1] relates to PLO-induced epilepsy in mice. Briefly: Pilocarpine (PLO) induced convulsive epilepsy in mice. As to conditions: Diazepam 2 mg/kg, PLO 225 mg/kg i.p. Set-up: mortality rate: unit not given here. In kind it is in vivo, ICR mice. As for the experimental part: Animals: male ICR mice; Drugs: Pilocarpine HCl (PLO, pilocarpine, pilocarpine hydrochloride), Diazepam (diazepam tablets), protein BD-10.
Experiment grouping: • Model group: • Diazepam 2 mg/kg group; • Protein BD-10, 50 mg/kg group, 200 mg/kg group.
The drug was administered once in the afternoon the day before modeling, PLO-225 mg/kg (modeling agent) was injected intraperitoneally 1 hour after the test drug was administered intragastrically on the day of modeling. And positive drug can be administered once 20 minutes before modeling. Observe for 30 minutes after PLO injection.
Observation indicators: (1)Seizure situation: the time of seizures from Grade II to Grade IV; (2)the time to death.
(§1) Seizure grade: Refer to Racine grading standard: Grade 0: No response; Grade I: manifested as twitching of facial muscles or the corners of the mouth; Grade II: can nod; Grade III: twitching of one limb; Grade IV: rigidity or body twitching; Grade V: generalized epilepsy (generalized tonic seizures).
Count the number of Grade IV seizures and deaths in each group of mice in the experiment; Grade II, III and IV incubation period. […] Chi-square test was used for statistics of the number of cases. The mean value and standard error of the incubation period were calculated, and TTEST was used to compare the model group with other groups. P<0.05 was considered as a significant difference.

Assay [2] concerns lipopolysaccharide (LPS) induced fever in SD rats. Put plainly: Lipopolysaccharide (LPS) induced fever model in SD rats. Format: in vivo. As to conditions: aspirin 300 mg/kg oral. Here is the method: Animals: 230-260 grams of male SD rats; Drugs: lipopolysaccharide (LPS, SIGMA L-2880), aspirin (SIGMA A2093), protein BD-10; Instruments: electronic balance (SARTORIUS BP121S type), electronic clinical thermometer (CITIZEN CT-513W type).
Method: the method of intraperitoneal injection of Lipopolysaccharide to replicate rat fever model.
(§2) Preparation of experimental animals: After the experimental animals adapt to the experimental environment (temperature 22° C.±2° C., relative humidity 50%±2%) for 1 day. Pre-adaptation to measure rectal temperature at 8:00 and 15:00, rats were fasted and water was taken freely 12 h before experiment, and let the animal to empty its feces before measuring the rectal temperature. Apply petroleum jelly to the electronic thermometer probe before each temperature measurement. Insert the rat rectum 2 cm (can be marked at 2 cm to ensure that the depth of each insertion is consistent), and record the body temperature after the reading is stable.
Intraperitoneal injection of lipopolysaccharide to replicate rat fever model: The body temperature of the rats was measured before modeling. Qualified rats with a body temperature of 36.2-37.3° C. were selected and randomly divided into groups with 8 rats in each group. After oral administration of aspirin and different doses of protein BD-10, lipopolysaccharide (20 μg/kg, 2 ml/kg) was injected intraperitoneally immediately, and the normal control group was injected intraperitoneally with an equal volume of normal saline. The body temperatures of the rats were monitored after 2 hours for a total of 8 hours.
(§3) According to the body temperature measured at each time point on the day of the experiment, calculate the mean, standard deviation and standard error of the body temperature of each group of rats. The data of each group was compared with TTEST, and P<0.05 was considered as a significant difference.

Assay [3] relates to yeast-induced fever model in rats. Put plainly: Yeast-induced fever model in SD rats. Format: in vivo. To be noted: aspirin 300 mg/kg oral. As for the experimental part:
Animals: 230-260 grams of male SD rats; Medicines: yeast (OXOID LP0021), aspirin (SIGMA A2093), protein BD-10; Instruments: electronic balance (SARTORIUS BP121S type), electronic clinical thermometer (CITIZEN CT-513W type). Experiment grouping: • Normal control group; • Model group: yeast fever model; • Positive control group: Aspirin 300 mg/kg group; • Protein BD-10, 10 mg/kg group, 50 mg/kg group.
as §2
Subcutaneous injection of dry yeast to replicate rat fever model: The body temperature of the rats was measured before modeling. Qualified rats with a body temperature of 36.2-37.3° C. were selected and randomly divided into groups with 8 rats in each group. After oral administration of aspirin and different doses of protein BD-10, 20% yeast suspension (10 ml/kg) was injected subcutaneously immediately, and the normal control group was injected intraperitoneally with an equal volume of normal saline. The body temperatures of the rats were monitored after 2 hours for a total of 8 hours.
as §3

Assay [4] concerns acetic acid writhing of ICR mice. Put plainly: Acetic acid writhing test in ICR mice. In kind it is in vivo. Here is the method: Animals: male ICR mice; Drugs and reagents: aspirin, physiological saline, glacial acetic acid, protein BD-10. Experiment grouping: • Model group; • Aspirin 300 mg/kg group; • Protein BD-10, 50 mg/kg group, 200 mg/kg group.
One day after the experimental animals adapt to the environment, Aspirin 300 mg/kg, protein BD-10 50 mg/kg, 200 mg/kg were given orally one hour in advance, and the administration volume was 10 ml/kg; Then, 0.6% acetic acid solution was injected intraperitoneally, and the incubation period (seconds) and frequency of writhing in the animal was observed within 15 minutes.
Calculate the mean and standard error of the data in each group. Compared with the model group by TTEST, P<0.05 was considered as statistically different.
(An intraperitoneal irritant provokes the stretching counted in writhing tests.)

For assay [5], the system named is mice cough induced by ammonia water. Briefly: Antitussive test, cough induced by ammonia water in mice. In kind it is in vivo, ICR mice. Here is the method: Animals: male ICR mice; Drugs and reagents: dextromethorphan hydrobromide, ammonia water, 0.2% CMC-Na, protein BD-10; Apparatus: Compressed nebulizer (403T type), balance (XS105DU type). Experiment grouping: • Solvent control group; • Dextromethorphan 15 mg/kg group; • Protein BD-10, 20 mg/kg group, 50 mg/kg group.
Dextromethorphan and different doses of protein BD-10 (administration volume 10 ml/kg) were given orally in groups, and the solvent control group was given the same volume of distilled water. One hour later, mice were put into a sealed box and atomized 10% ammonia water for 10 seconds, and then observed and recorded the incubation period of cough in mice and the number of coughs in 2 minutes.
Record the time point of oral administration, the time point of atomization experiment, the incubation period of mice cough and the number of coughs within 2 minutes, respectively. The incubation period of cough refers to the number of seconds from the start of the atomization of ammonia to the occurrence of cough. The performance of coughing in mice is based on contraction of their abdominal muscles (breast contraction) and opening their mouths at the same time. Calculate the mean and standard error of each group of data, and use TTEST to compare the model group with other groups, and P<0.05 is considered as a significant difference.

In assay [6] the test system is PTZ-induced epilepsy in mice. Put plainly: Pentylenetetrazole (PTZ) induced epilepsy in mice. Format: in vivo, ICR mice. To be noted: Retigabine 60 mg/kg, PTZ 65 mg/kg i.p. Here is the method: Medicines: Pentylenetetrazol (PTZ), Retigabine, Protein BD-10.
Experiment grouping: • Model group; • Retigabine 60 mg/kg group; • Protein BD-10, 50 mg/kg group, 200 mg/kg group;
The drug was administered once in the afternoon the day before modeling, On the day of modeling, PTZ-65 mg/kg (modeling agent) was injected intraperitoneal 1 hour after the test drug was administered intragastrically, and the positive drug can be administered once half an hour before modeling. Continue to observe for 15 minutes after injection of PTZ.
Observation index: (1)Seizure situation: the time of seizures from Grade III to Grade VI; (2)Death situation
as §1
Count the cases of seizures and deaths in each group of mice in the experiment; Grade III and IV incubation period. The incubation period of mice that have not attacked to Grade IV is recorded as the maximum of 900 seconds. Chi-square test was used for statistics of the number of cases. Calculate the mean and standard error of the incubation period. Use TTEST to compare the model group with other groups, and P<0.05 is considered as a significant difference.

The mark [7] stands for this setting: 2, 4, 6 and 8 hours after modeling, vs model group P<0.05.
Where [8] appears, read: 20% yeast suspension 10 ml/kg s.c., SD rats.
The mark [9] stands for this setting: aspirin 300 mg/kg oral one hour before 0.6% acetic acid i.p., observed within 15 minutes.

Where a name gives a salt, the structure may show the parent alone. Marks after values point to notes of the source that are not given here.

Turning to `CN1C(=O)CN=C(c2ccccc2)c2cc(Cl)ccc21` [Diazepam, reference compound], in assay [1] (10 mice), the “Grade IV seizure rate” value was 0** % and the mortality rate was 0. In assay [1] (mean ± SEM), the “Grade II seizure incubation period” value was determined as 109 ± 8 s and the “Grade III seizure incubation period” value is 182 ± 14 s. The “Grade IV seizure incubation period” value in assay [1] (mean ± SEM, mice not reaching Grade IV recorded as maximum 1800 seconds) is reported as 1800 ± 0 s. In assay [1] (of 10 mice), this molecule returned a Cases of deaths of 0. Also, the “Cases of Grade IV” value in assay [1] (of 10 mice, 30 minutes observation) was 0**.
Take `CC(=O)Oc1ccccc1C(=O)O` [aspirin, reference compound]: the “Effect on body temperature of model rats (in words)” value in assay [2] (setting [7]) was “can effectively inhibit the increase in body temperature”. Besides, in assay [2] (LPS 20 μg/kg i.p., SD rats), the “Body temperature 2 hours after modeling” value is 36.8 ± 0.1 °C, the “Body temperature 4 hours after modeling” value amounted to 36.9 ± 0.2 °C, the “Body temperature 6 hours after modeling” value amounted to 36.8 ± 0.2 °C and the “Body temperature 8 hours after modeling” value came out at 36.9 ± 0.1 °C. In addition, the “Effect on body temperature of model rats (in words)” value in assay [3] (setting [7]) is given as “can effectively inhibit the increase in body temperature”. Moreover, in assay [3] (setting [8]), the “Body temperature 2 hours after modeling” value was found to be 37.0 ± 0.1 °C, the “Body temperature 4 hours after modeling” value was found to be 37.0 ± 0.1 °C, the “Body temperature 6 hours after modeling” value was 37.0 ± 0.1 °C and the “Body temperature 8 hours after modeling” value was 37.0 ± 0.1 °C. Also, in assay [4] (Aspirin 300 mg/kg, vs model group P<0.05), the “Effect on writhing incubation period and times of writhing (in words)” value was “can significantly delay the incubation period of writhing and reduce the times of writhing”. In assay [4] (setting [9]), this molecule showed a Frequency of writhing of 15.2 ± 2.9 times and a Writhing incubation period of 290.3 ± 37.0 s.
`COc1ccc2c(c1)[C@]13CCCC[C@@H]1[C@H](C2)N(C)CC3` [Dextromethorphan, dextromethorphan hydrobromide, reference compound]: the “Incubation period (cough)” value in assay [5] (Dextromethorphan 15 mg/kg oral, 10% ammonia water atomized 10 seconds one hour later, X ± SEM) is given as 38.4 ± 4.5 s. In assay [5] (Dextromethorphan 15 mg/kg oral, 10% ammonia water atomized 10 seconds one hour later, coughs within 2 minutes, X ± SEM), this molecule registered a Number of coughs of 34.0 ± 2.9. Besides, in assay [5] (dextromethorphan 15 mg/kg group, vs solvent control group P<0.05), the “Effect on incubation period and number of coughs (in words)” value was “significant improvement”.
With `CCOC(=O)Nc1ccc(NCc2ccc(F)cc2)cc1N` [Retigabine, reference compound], in assay [6] (10 mice), the “Grade IV seizure rate” value was 20%** and the mortality rate came out at 0%. For the same molecule, in assay [6] (mean ± SEM), the “Grade III seizure incubation period” value amounted to 83 ± 7 s. For the same molecule, in assay [6] (mean ± SEM, mice not reaching Grade IV recorded as maximum 900 seconds), the “Grade IV seizure incubation period” value turned out to be 745 ± 103 s. In assay [6] (of 10 mice), the Cases of deaths was 0. In addition, the “Cases of Grade IV” value in assay [6] (of 10 mice, 15 minutes observation) is 2**.
